Laboratory results taken from patent publication US4017487A, “7β-(D-5-amino-5-carboxyvaleramido )-7-methoxy-3-substituted-3-cephem-4-carboxylic acid antibiotics” (priority 1974, dated 1977).
Values joined by “and” are separate entries in the source; they are usually repeats but may differ in a detail not shown here. Identical values can stand only once. “Also recorded” adds a separate entry of the source. Like-named read-outs stand apart in the source and are kept apart here.

Assays:
[1] = tested on: Bacillus sp.; assay: In vitro disc-plate agar diffusion, antibacterial spectrum (7 mm = no zone); assay type: cell-based; conditions: 16 h, 166 μg/ml, inoculum 5 ml/150 ml, 25° C., read-out: Inhibition Zone Diameter
[2] = tested on: Bacillus subtilis; assay: as above; assay type: cell-based; conditions: 16 h, read-out: Inhibition Zone Diameter
[3] = tested on: Salmonella gallinarum; assay: as above; assay type: cell-based; conditions: Salmonella enterica, 16 h, 166 μg/ml, inoculum 10 ml/150 ml, 25° C., read-out: Inhibition Zone Diameter
[4] = tested on: Vibrio percolans; assay: as above; assay type: cell-based; conditions: Comamonas terrigena, 16 h; 166 μg/ml; inoculum 10 ml/150 ml; 27° C.; read-out: Inhibition Zone Diameter
[5] = tested on: Xanthomonas vesicatoria; assay: as above; assay type: cell-based; conditions: 16 h, read-out: Inhibition Zone Diameter
[6] = tested on: Escherichia coli strains; assay: microbe, parasite or virus in culture; assay type: cell-based; conditions: 16 h, read-out: Inhibition Zone Diameter, 166 μg/ml, Pleocidin-resistant, 37° C.
[7] = tested on: Aerobacter aerogenes; assay: In vivo mouse protection test; parameters: species or system white Swiss mice; conditions: s.c. × two doses
Source text: (§1) Methods: The method employed in this characterization is as follows: Female white Swiss mice, average weight 20-23 grams, were infected intraperitoneally with 3-20 times the number of organisms calculated to be lethal for 50% of the infected control animals (3-20 LD50 doses). At the time of infection and again six hours later, therapy was given by the designated route. Controls of the virulence of the culture and the toxicity of the antibiotic for uninfected mice were included in the tests. Seven days after infection the test was considered complete and the amount of the antibiotic (I) that would be required to protect 50% of the infected and treated animals was calculated by the method of Knudsen and Curtis; J. Amer. Stat. Assoc. Vol. 42: page 282 (1947).
(§2) The method employed in these studies is the same as described above with regard to the in vivo characterization of 810A. The results of these tests are described below in Table XIb:
(§3) Administration was by subcutaneous injection. At the completion of the test period, usually seven days after administration, the amount of product required to protect 50% of the mice (ED50) from this otherwise fatal injection was calculated: […]

[8] = tested on: Diplococcus pneumoniae 2400; assay: In vivo mouse protection test; parameters: species or system white Swiss mice; conditions: s.c. × two doses
Source text: as §1, §2, §3

[9] = tested on: Escherichia coli; assay: In vivo mouse protection test; parameters: species or system white Swiss mice; conditions: s.c. × two doses
Source text: as §1, §2, §3

[10] = tested on: Klebsiella pneumoniae AD; assay: In vivo mouse protection test; parameters: species or system white Swiss mice; conditions: s.c. × two doses
Source text: as §1, §2, §3

[11] = tested on: Klebsiella pneumoniae B; assay: In vivo mouse protection test; parameters: species or system white Swiss mice; conditions: s.c. × two doses
Source text: as §1, §2, §3

[12] = tested on: Paracolobactrum arizonae; assay: In vivo mouse protection test; parameters: species or system white Swiss mice; conditions: s.c. × two doses
Source text: as §1, §2, §3

[13] = tested on: Pasteurella multocida; assay: In vivo mouse protection test; parameters: species or system white Swiss mice; conditions: s.c. × two doses
Source text: as §1, §2, §3

[14] = tested on: Proteus mirabilis; assay: In vivo mouse protection test; parameters: species or system white Swiss mice; conditions: s.c. × two doses
Source text: as §1, §2, §3

[15] = tested on: Proteus morganii 3202; assay: In vivo mouse protection test; parameters: species or system white Swiss mice; conditions: s.c. × two doses
Source text: as §1, §2, §3

[16] = tested on: Proteus vulgaris; assay: In vivo mouse protection test; parameters: species or system white Swiss mice; conditions: s.c. × two doses
Source text: as §1, §2, §3

[17] = tested on: Salmonella schottmuelleri; assay: In vivo mouse protection test; parameters: species or system white Swiss mice; conditions: s.c. × two doses
Source text: as §1, §2, §3

[18] = tested on: Salmonella typhosa; assay: In vivo mouse protection test; parameters: species or system white Swiss mice; conditions: s.c. × two doses
Source text: as §1, §2, §3

[19] = tested on: Proteus morganii 356; assay: In vivo mouse protection test, cephalosporin-resistant clinical isolate; parameters: species or system white Swiss mice; conditions: s.c. × 2 doses
Source text: as §1
In addition to the aforementioned in vivo trials of the product, a clinical isolate of Proteus morganii 356 which is resistant to cephalosporins and capable of degrading cephalosporin C, was employed in a mouse protection test performed in the same manner as reported above.

[20] = tested on: gram-negative and gram-positive infections; assay: In vivo protection against infection (general statements); parameters: species or system mice; conditions: for in vivo protection / activity: mouse
Source text: as §1
The method employed in these studies is the same as described above with regard to the in vivo characterization of 810A.

[21] = Blood appearance and urinary excretion; conditions: in vivo
[22] = tested on: cephalosporinases; assay: Resistance to cephalosporinases; assay type: biochemical
[23] = tested on: gram-negative and gram-positive bacteria; assay: Antibacterial activity (general statements); assay type: cell-based
[24] = Isoelectric point and pH stability; assay type: physicochemical
[25] = tested on: degradative bacteria / enzymatic degradation; assay: Resistance to enzymatic degradation / bacterial inactivation (general statements); assay type: biochemical
Source text: Bacterial Inactivation with 810A: An in vitro study was designed to determine the resistance of Antibiotic 810A, to bacterial inactivation as compared with cephalosporin C, cephaloridine and cephalothin.

[26] = tested on: Proteus morganii 251; conditions: washed bacterial cells, 4 h, pH 7.5
[27] = tested on: Proteus morganii 356; conditions: washed bacterial cells, 4 h, pH 7.5
[28] = tested on: Proteus mirabilis 241; conditions: washed bacterial cells, 4 h, pH 7.5
[29] = tested on: Escherichia coli 236; assay: Bacterial inactivation; conditions: four hours; B. subtilis (MB-964); 240 min
[30] = tested on: Vibrio percolans MB-1272; assay: Disc-plate assay using Vibrio percolans; conditions: broth
[31] = tested on: Alcaligenes viscosus (MB-12); assay: Bacterial inactivation, washed bacterial cells; conditions: 4 hour incubation; assayed on B. subtilis (MB-964) plates

## CO[C@@]1(NC(=O)CCC[C@@H](N)C(=O)O)C(=O)N2C(C(=O)O)=C(COC(N)=O)CS[C@@H]21 [Example 842A]
[1]
  zone of inhibition at 166 µg/mL: 8 mm
[2]
  zone of inhibition at 166 µg/mL: 13 mm
[3]
  zone of inhibition at 166 µg/mL: 21 mm
[4]
  zone of inhibition at 166 µg/mL: 56 mm
[5]
  zone of inhibition at 166 µg/mL: 19 mm
[6]
  zone of inhibition at 166 µg/mL: 18 mm
[7]
  ED50 by Subcutaneous Route × Two Doses: 49 µg
[8]
  ED50 by Subcutaneous Route × Two Doses: 566 µg
[9]
  ED50 by Subcutaneous Route × Two Doses: 200 µg
[10]
  ED50 by Subcutaneous Route × Two Doses: 125 µg
[11]
  ED50 by Subcutaneous Route × Two Doses: 125 µg
[12]
  ED50 by Subcutaneous Route × Two Doses: 125 µg
[13]
  ED50 by Subcutaneous Route × Two Doses: 57 µg
[14]
  ED50 by Subcutaneous Route × Two Doses: 276 µg
[15]
  ED50 by Subcutaneous Route × Two Doses: 276 µg
[16]
  ED50 by Subcutaneous Route × Two Doses: 51 µg
[17]
  ED50 by Subcutaneous Route × Two Doses: 103 µg
[18]
  ED50 by Subcutaneous Route × Two Doses: 33 µg and 34 µg
[19]
  ED50 by Subcutaneous Route × 2 Doses (average of Two Trials): 273 µg
[20]
  in vivo protection / activity: protects against infection with three species of Proteus, two of Salmonella, one strain of Escherichia coli, two of Klebsiella and also against Paracolobactrum arizonae, Aerobacter aerogenes, Pasteurella multocida and Diplococcus pneumoniae 2400
[20]; listed as Antibiotic 842A
  in vivo protection / activity: effectiveness in vivo on Proteus morganii and an effectiveness against the following gram-negative bacteria: Escherichia coli, Proteus vulgaris, Proteus mirabilis, Proteus morganii, Salmonella schottmuelleri, Klebsiella pneumoniae AD, Klebsiella pneumoniae B, and Paracolobactrum arizonae
[20]; oral
  oral protection against infections: protects against infections due to Paracolobactrum arizonae 3720, Proteus vulgaris 1810, and Salmonella schottmuelleri 3010
[21]
  appearance in the blood: appears rapidly in the blood
[22]
  resistance to cephalosporinases: greater resistance to cephalosporinases
[23]
  antibacterial activity: exhibits activity against Salmonella schottmuelleri 3010, S. gallinarum and S. typhosa; also recorded: inhibits the growth of the following gram-negative bacteria: Escherichia coli, Proteus vulgaris, Alcaligenes faecalis, Brucella bronchiseptica, Salmonella gallinarum, Vibrio percolans and Xanthomonas vesicatoria; also recorded: inhibits the growth of the following gram-positive bacteria: Staphylococcus aureus, Sarcina lutea and Bacillus subtilis
[23]; listed as Antibiotic 842A
  antibacterial activity: enhanced activity against gram-negative microorganisms
[24]
  apparent isoelectric point: ~3.5 pH
  pH stability: unstable above pH 9.0; also recorded: relatively stable at pH 1.5; also recorded: unstable above pH 7
[25]; compared with cephalosporin C
  resistance to enzymatic degradation: more resistant to enzymatic degradation than cephalosporin C
[25]; compared with other cephalosporins
  resistance to bacterial inactivation: more stable than the latter against certain microorganisms; also recorded: more resistant than cephalosporin C to inactivation by A. faecalis, A. viscosus, Escherichia coli 236, Proteus morganii 251, Proteus morganii 236 and Proteus mirabilis 241
[26]
  percent inactivation: 80%
[27]
  percent inactivation: 69%
[28]
  percent inactivation: 5%
[29]
  percent inactivation: 38%
[30]; 1:10 dilution, Example 10
  inhibition zone: 21.5 mm.
[30]; 4 days, 0.5 inch discs, Example 9
  inhibition zone: 33 mm.
[30]; four days, 0.5 inch discs, Example 8
  inhibition zone: 31.5 mm.
[31]
  percent inactivation: 54.4%
